# Measurements: ChEMBL document CHEMBL4765331, “Amides of pyrrole- and thiophene-fused anthraquinone derivatives: A role of the heterocyclic core in antitumor properties” (Eur J Med Chem, 2020)
# The source made the active and inactive calls. The calls are words filed in the database; no cut-off is given here.
# Columns and labels:
# TERT-RPE1 = test: Cytotoxicity against human TERT-RPE1 cells assessed as inhibition of cell proliferation measured after 72 hrs by MTT assay; type: cell-based; conditions: RPE-1, 72 h
# HCT-116 [1] = test: Antiproliferative activity against human HCT-116 cells assessed as inhibition of cell proliferation measured after 72 hrs by MTT assay; type: functional, cell-based; conditions: HCT-116, 72 h
# K562 [2] = test: Antiproliferative activity against human K562 cells assessed as inhibition of cell proliferation measured after 72 hrs by MTT assay; type: functional, cell-based; conditions: K562, 72 h
# P388 [3] = test: Antitumour activity against mouse P388 cells xenografted intraperitoneally in BDF1 mouse assessed as mean life span time at 20 mg/kg, ip administered qd for 5 days (reference value: 11.5 +/-0.9 days); type: functional; conditions: dose 20 mg/kg/day; time 5 day
# P388 [4] = test: Antitumour activity against mouse P388 cells xenografted intraperitoneally in BDF1 mouse assessed as […] T/C ratio at 20 mg/kg, ip administered qd for 5 days (reference value: 100%); type: functional; conditions: dose 20 mg/kg/day; time 5 day
# NCI-H460 = test: Antiproliferative activity against human NCI-H460 cells assessed as inhibition of cell proliferation measured after 72 hrs by MTT assay; type: functional, cell-based; conditions: NCI-H460, 72 h
# CAPAN-1 = test: Antiproliferative activity against human CAPAN-1 cells assessed as inhibition of cell proliferation measured after 72 hrs by MTT assay; type: functional, cell-based; conditions: CAPAN-1, 72 h
# HL-60 = test: Antiproliferative activity against human HL-60 cells assessed as inhibition of cell proliferation measured after 72 hrs by MTT assay; type: functional, cell-based; conditions: HL-60, 72 h
# [5] = Drug uptake in mouse NIH3T3 cells assessed as compound localization in mitochondria at 1 uM measured after 15 mins by Mitotracker Green FM dye based laser scanning microscope; type: ADME; conditions: nih3t3, 0.25 h
# Calf thymus DNA [6] = test: Binding affinity to calf thymus double stranded DNA at 10 uM measured after 5 mins by flourescence spectroscopy method; conditions: Bos taurus
# [7] = Antiproliferative activity against P-gp-positive/doxorubicin-resistant human K562/4 cells assessed as inhibition of cell proliferation measured after 72 hrs by MTT assay; type: functional; conditions: K562/4, 72 h
# K562 [8] = test: Induction of apoptosis in human K562 cells assessed as early apoptotic cells at 3.2 uM measured after 48 hrs by Annexin V-APC/PI staining based flow cytometry assay (reference value: 3.4%); type: functional
# Calf thymus DNA [9] = test: Binding affinity to calf thymus DNA assessed as stoichiometry ratio of compound-DNA complex formation by scatchard plot analysis; conditions: Bos taurus
# K562 [10] = test: Induction of apoptosis in human K562 cells assessed as viable cells at 3.2 uM measured after 48 hrs by Annexin V-APC/PI staining based flow cytometry assay (reference value: 85.9%); type: functional; conditions: read-out: Activity
# [11] = molecular target: T1, DNA topoisomerase 1 (Homo sapiens) (UniProt P11387); test: Inhibition of human topoisomerase 1-mediated relaxation of supercoiled plasmid using pBR322 plasmid as substrate at 40 uM measured after 30 mins by ethidium bromide dye based agarose gel electrophoresis method
# T1 sequence (whole entry): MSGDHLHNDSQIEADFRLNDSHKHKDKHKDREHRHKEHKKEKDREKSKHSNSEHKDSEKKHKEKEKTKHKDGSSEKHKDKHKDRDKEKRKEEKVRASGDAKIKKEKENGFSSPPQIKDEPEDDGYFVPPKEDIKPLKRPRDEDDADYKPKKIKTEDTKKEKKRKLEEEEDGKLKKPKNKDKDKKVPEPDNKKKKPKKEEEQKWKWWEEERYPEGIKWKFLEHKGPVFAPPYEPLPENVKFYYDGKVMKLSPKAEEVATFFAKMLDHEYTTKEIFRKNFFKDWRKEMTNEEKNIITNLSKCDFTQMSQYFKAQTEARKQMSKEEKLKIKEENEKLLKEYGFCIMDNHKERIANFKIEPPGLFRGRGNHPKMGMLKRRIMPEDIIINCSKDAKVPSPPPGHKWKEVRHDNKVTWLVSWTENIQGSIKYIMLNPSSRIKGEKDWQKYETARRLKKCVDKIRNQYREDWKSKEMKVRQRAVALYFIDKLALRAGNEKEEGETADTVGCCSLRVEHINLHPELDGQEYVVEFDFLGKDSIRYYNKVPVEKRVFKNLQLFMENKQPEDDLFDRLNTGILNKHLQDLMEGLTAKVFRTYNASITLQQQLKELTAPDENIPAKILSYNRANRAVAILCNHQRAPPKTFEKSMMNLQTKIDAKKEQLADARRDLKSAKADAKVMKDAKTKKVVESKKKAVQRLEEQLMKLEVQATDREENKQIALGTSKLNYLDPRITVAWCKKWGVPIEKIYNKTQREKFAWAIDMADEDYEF
# [12] = Drug uptake in P-gp-positive/doxorubicin-resistant human K562/4 cells; type: ADME
# Calf thymus DNA [13] = test: Binding affinity to calf thymus DNA assessed as binding constant by scatchard plot analysis; conditions: Bos taurus
# [14] = Selectivity index, ratio of IC50 for human TERT-RPE1 cells to IC50 for human HCT-116 cells; type: toxicity; conditions: TERT-RPE1 cells and HCT-116 cells, read-out: Ratio IC50
# K562 [15] = test: Induction of cell cycle arrest in human K562 cells assessed as accumulation at subG1 phase at 2XIC50 measured after 24 hrs by propidium iodide/RNase staining based flow cytometry; type: functional
# K562 [16] = test: Induction of apoptosis in human K562 cells assessed as viable cells at 3.2 uM measured after 24 hrs by Annexin V-APC/PI staining based flow cytometry assay (reference value: 85.9%); type: functional; conditions: read-out: Activity
# K562 [17] = test: Induction of apoptosis in human K562 cells assessed as late apoptotic cells at 3.2 uM measured after 24 hrs by Annexin V-APC/PI staining based flow cytometry assay (reference value: […]); type: functional
# [18] = Drug uptake in mouse NIH3T3 cells assessed as compound localization in nucleus at 1 uM measured after 15 mins by laser scanning microscope; type: ADME, subcellular; conditions: nih3t3, 0.25 h
# K562 [19] = test: Induction of cell cycle arrest in human K562 cells assessed as accumulation at G2/M phase at 2XIC50 measured after 24 hrs by propidium iodide/RNase staining based flow cytometry; type: functional
# K562 [20] = test: Induction of oxidative stress in human K562 cells assessed as increase in intracellular ROS generation at 3.2 uM measured after 40 mins by Deep Red dye based flow cytometry method; type: functional, cell-based
# K562 [21] = test: Induction of apoptosis in human K562 cells assessed as early apoptotic cells at 3.2 uM measured after 24 hrs by Annexin V-APC/PI staining based flow cytometry assay (reference value: 3.4%); type: functional
# [22] = Selectivity index, ratio of IC50 for human TERT-RPE1 cells to IC50 for human CAPAN-1 cells
# HCT-116 [23] = test: Antiproliferative activity against human HCT-116 cells with inactivated p53 gene assessed as inhibition of cell proliferation measured after 72 hrs by MTT assay; type: functional, cell-based; conditions: HCT-116, 72 h
# K562 [24] = test: Induction of cell cycle arrest in human K562 cells assessed as accumulation at G2/M phase at 2XIC50 measured after 48 hrs by propidium iodide/RNase staining based flow cytometry; type: functional
# Calf thymus DNA [25] = test: Binding affinity to calf thymus DNA assessed as DNA intercalation by measuring decrease of negative DNA band at 245 nm at 50 uM by circular dichroism spectral analysis; type: tissue-based; conditions: Bos taurus
# Calf thymus DNA [26] = test: Binding affinity to calf thymus DNA assessed as dissociation constant by scatchard plot analysis; design: species or system Bos taurus
# [27] = Selectivity index, ratio of IC50 for human TERT-RPE1 cells to IC50 for human HL-60 cells; type: toxicity; conditions: TERT-RPE1 cells and HL-60 cells, read-out: Ratio IC50
# [28] = Selectivity index, ratio of IC50 for human TERT-RPE1 cells to IC50 for human K562 cells; type: toxicity; conditions: TERT-RPE1 cells and K562 cells, read-out: Ratio IC50
# [29] = Drug uptake in mouse NIH3T3 cells assessed as compound localization in cytoplasm at 1 uM measured after 15 mins by laser scanning microscope; type: ADME, subcellular; conditions: nih3t3, 0.25 h
# K562 [30] = test: Induction of apoptosis in human K562 cells assessed as necrotic cells at 3.2 uM measured after 24 hrs by Annexin V-APC/PI staining based flow cytometry assay (reference value: 3.9%); type: functional
# K562 [31] = test: Induction of apoptosis in human K562 cells assessed as late apoptotic cells at 3.2 uM measured after 48 hrs by Annexin V-APC/PI staining based flow cytometry assay (reference value: […]); type: functional
# [32] = Selectivity index, ratio of IC50 for human TERT-RPE1 cells to IC50 for human NCI-H460 cells; type: toxicity; conditions: TERT-RPE1 cells and NCI-H460 cells, read-out: Ratio IC50
# K562 [33] = test: Induction of apoptosis in human K562 cells assessed as necrotic cells at 3.2 uM measured after 48 hrs by Annexin V-APC/PI staining based flow cytometry assay (reference value: 3.9%); type: functional
# [34] = Resistance index, ratio of IC50 for human P-gp-positive/Doxorubicin-resistant K562/4 cells to IC50 for human K562 cells; type: functional
# [35] = Drug uptake in human K562i/S9 cells harboring exogenously expressed MDR1/Pgp; type: ADME, cell-based
smiles,measurement,setting,value
Cc1[nH]c2c(O)c3c(c(O)c2c1C(=O)N1CC[C@@H](N)C1)C(=O)c1ccccc1C3=O,IC50,TERT-RPE1,15.9 µM
same,IC50,HCT-116 [1],1.5 µM
same,IC50,K562 [2],0.3 µM
same,Time,P388 [3],17.3 days
same,T/C,P388 [4],150%
same,IC50,NCI-H460,0.5 µM
same,IC50,CAPAN-1,0.5 µM
same,IC50,HL-60,0.2 µM
N[C@H]1CCN(C(=O)c2csc3c(O)c4c(c(O)c23)C(=O)c2ccccc2C4=O)C1,Drug uptake,[5],Active
same,IC50,TERT-RPE1,12.9 µM
same,Activity,Calf thymus DNA [6],Active
same,IC50,[7],4.3 µM
same,Activity,K562 [8],0.9%
same,Ratio,Calf thymus DNA [9],2
same,viability at 3.2 µM,K562 [10],54.1%
same,IC50,HCT-116 [1],1.8 µM
same,inhibition,[11],Active
same,IC50,K562 [2],1.6 µM
same,Drug uptake,[12],Active
same,Kb,Calf thymus DNA [13],2 10^5/M
same,selectivity ratio,[14],2
same,Activity,K562 [15],Active
same,viability at 3.2 µM,K562 [16],71.2%
same,Activity,K562 [17],6.7%
same,Drug uptake,[18],Active
same,Activity,K562 [19],Active
same,Activity,K562 [20],Active
same,Activity,K562 [21],0.8%
same,Ratio IC50,[22],2
same,IC50,HCT-116 [23],2.2 µM
same,Activity,K562 [24],Active
same,Activity,Calf thymus DNA [25],Active
same,Kd,Calf thymus DNA [26],5 µM
same,selectivity ratio,[27],2
same,selectivity ratio,[28],2
same,IC50,NCI-H460,2.1 µM
same,IC50,CAPAN-1,2.1 µM
same,IC50,HL-60,5.5 µM
same,Drug uptake,[29],Active
same,Activity,K562 [30],21.3%
same,Activity,K562 [31],9.9%
same,selectivity ratio,[32],2
same,Activity,K562 [33],35.1%
same,Ratio IC50,[34],2.7
same,Drug uptake,[35],Active
Cc1c(C(=O)N2CC[C@H](N)C2)c2c(O)c3c(c(O)c2n1C)C(=O)c1ccccc1C3=O,IC50,TERT-RPE1,16.1 µM
same,Activity,Calf thymus DNA [6],Active
same,IC50,[7],25 µM
same,Ratio,Calf thymus DNA [9],3
same,IC50,HCT-116 [1],1.8 µM
same,IC50,K562 [2],1.2 µM
same,Kb,Calf thymus DNA [13],7.5 10^5/M
same,IC50,HCT-116 [23],3.2 µM
same,Activity,Calf thymus DNA [25],Active
same,Kd,Calf thymus DNA [26],1.3 µM
same,IC50,NCI-H460,16.3 µM
same,IC50,CAPAN-1,1.1 µM
same,IC50,HL-60,0.7 µM
same,Ratio IC50,[34],19.2
COc1cccc2c1C(=O)c1c(O)c3c(c(O)c1C2=O)C[C@@](O)(C(=O)CO)C[C@@H]3O[C@H]1C[C@H](N)[C@H](O)[C@H](C)O1 [DOXORUBICIN],IC50,TERT-RPE1,1 µM
same,IC50,[7],5.5 µM
same,Drug uptake,[18],Active
same,IC50,NCI-H460,0.4 µM
same,IC50,CAPAN-1,1.7 µM
